Reference: US20120270929A1, “MODULATION OF TTC39 EXPRESSION TO INCREASE HDL” (ISIS Pharmaceuticals, Inc., priority 2009, published 2012)
Oligonucleotides are written 5' to 3', each unit as a sugar letter and its base; * is a phosphorothioate linkage, no mark a phosphodiester; rarer units and linkages stand in square brackets, end groups in braces. Plain capitals give the bases only. e = 2'-O-(2-methoxyethyl) (MOE); [5mC] = 5-methylcytosine; d = 2'-deoxy (DNA)

Tests used:
[1] = test system: murine TTC39C mRNA; assay: Antisense inhibition of mouse TTC39C in mouse primary hepatocytes, single dose; type: cell-based; details: 8,000 nM antisense oligonucleotide, electroporation, approximately 24 hours, TTC39C mRNA by real-time PCR (RTS3266), relative to untreated control cells
Description: Antisense oligonucleotides were designed targeting a TTC39C nucleic acid and were tested for their effects on TTC39C mRNA in vitro. Cultured mouse primary hepatocytes at a density of 30,000 cells per well were transfected by electroporation with 8,000 nM antisense oligonucleotide. After a treatment period of approximately 24 hours, RNA was isolated from the cells and TTC39C mRNA levels were measured by quantitative real-time PCR. Mouse primer probe set RTS3266 (forward sequence […], designated herein as SEQ ID NO: 140; reverse sequence […], designated herein as SEQ ID NO: 141; probe sequence […], designated herein as SEQ ID NO: 142). TTC39C mRNA levels were adjusted according to total RNA content, as measured by RIBOGREEN®. Results are presented as percent inhibition of TTC39C, relative to untreated control cells.
The chimeric antisense oligonucleotides targeting TTC39C were designed as 5-10-5 MOE gapmers. The gapmers are 20 nucleotides in length, wherein the central gap segment is comprised of ten 2′-deoxynucleotides and is flanked on both sides (in the 5′ and 3′ directions) by wings comprising five nucleotides each. Each nucleotide in the 5′ wing segment and each nucleotide in the 3′ wing segment has a 2′-MOE modification. The internucleoside linkages throughout each gapmer are phosphorothioate (P═S) linkages. All cytosine residues throughout each gapmer are 5-methylcytosines. “Mouse Target start site” indicates the 5′-most nucleotide to which the gapmer is targeted in the mouse gene sequence.

[2] = test system: murine TTC39C mRNA; assay: Dose-dependent antisense inhibition of murine TTC39C in mouse primary hepatocytes; type: cell-based; details: electroporation, ~16 h; for IC50: mouse primary hepatocytes
Description: Thirty antisense oligonucleotides were selected from the study described in Example 8 and further tested at various doses in mouse primary hepatocytes. Cells were plated at a density of 30,000 cells per well and transfected using electroporation with 500 nM, 1,000 nM, 2,000 nM, 4,000 nM, and 8,000 nM concentrations of antisense oligonucleotide, as specified in Table 30. After a treatment period of approximately 16 hours, RNA was isolated from the cells and TTC39C mRNA levels were measured by quantitative real-time PCR. Murine primer probe set RTS3266 was used to measure mRNA levels. TTC39C mRNA levels were adjusted according to total RNA content, as measured by RIBOGREEN®. Results are presented as percent inhibition of TTC39C, relative to untreated control cells.

| Substance | % inhibition [1] | percent inhibition of TTC39C mRNA ([2]; 500.0 nM) | percent inhibition of TTC39C mRNA ([2]; 1000.0 nM) | percent inhibition of TTC39C mRNA ([2]; 2000.0 nM) | percent inhibition of TTC39C mRNA ([2]; 4000.0 nM) | percent inhibition of TTC39C mRNA ([2]; 8000.0 nM) | IC50 [2] |
| --- | --- | --- | --- | --- | --- | --- | --- |
| ISIS 474518: 5-10-5 MOE gapmer antisense oligonucleotide targeting murine TTC39C (antisense eG*eT*eA*eG*eT*d[5mC]*dT*dT*dT*dA*dA*dG*dT*d[5mC]*dA*eT*e[5mC]*eG*e[5mC]*eA) | 96% | 61% | 73% | 90% | 94% | 96% |  |
| ISIS 474521: 5-10-5 MOE gapmer antisense oligonucleotide targeting murine TTC39C (antisense eG*eG*e[5mC]*eT*eT*dT*d[5mC]*d[5mC]*dT*dA*dA*dG*dG*dA*dT*e[5mC]*e[5mC]*eA*e[5mC]*e[5mC]) | 97% | 46% | 63% | 84% | 92% | 97% | 500 nM |
| ISIS 474523: 5-10-5 MOE gapmer antisense oligonucleotide targeting murine TTC39C (antisense eG*eG*eT*e[5mC]*eA*d[5mC]*d[5mC]*d[5mC]*d[5mC]*dT*dT*d[5mC]*dG*dG*d[5mC]*e[5mC]*eA*e[5mC]*eA*eA) | 98% | 72% | 80% | 94% | 96% | 97% |  |
| ISIS 474532: 5-10-5 MOE gapmer antisense oligonucleotide targeting murine TTC39C (antisense eG*eT*eT*eG*eT*dG*d[5mC]*d[5mC]*d[5mC]*d[5mC]*dA*dT*d[5mC]*d[5mC]*dA*e[5mC]*eA*eT*e[5mC]*eA) | 99% | 51% | 64% | 84% | 94% | 97% | 400 nM |
| ISIS 474535: 5-10-5 MOE gapmer antisense oligonucleotide targeting murine TTC39C (antisense eT*e[5mC]*e[5mC]*eA*e[5mC]*dT*dT*d[5mC]*dA*dT*dG*dG*d[5mC]*dA*dA*eG*e[5mC]*eT*eT*eG) | 96% | 18% | 35% | 61% | 83% | 93% | 1500 nM |
| ISIS 474538: 5-10-5 MOE gapmer antisense oligonucleotide targeting murine TTC39C (antisense eT*eA*eG*e[5mC]*eA*d[5mC]*dG*d[5mC]*dA*dT*dA*dT*dG*dG*d[5mC]*eG*eG*eG*eA*e[5mC]) | 96% | 51% | 58% | 82% | 88% | 92% | 400 nM |
| ISIS 474540: 5-10-5 MOE gapmer antisense oligonucleotide targeting murine TTC39C (antisense e[5mC]*e[5mC]*eA*e[5mC]*eT*dG*dG*dG*dA*dG*dT*dT*dT*dA*dT*e[5mC]*eA*e[5mC]*eT*eG) | 98% | 43% | 65% | 81% | 92% | 97% | 500 nM |
| ISIS 474543: 5-10-5 MOE gapmer antisense oligonucleotide targeting murine TTC39C (antisense e[5mC]*e[5mC]*eA*eG*eG*dT*dG*dG*d[5mC]*dT*dT*dT*dG*dG*d[5mC]*eT*eT*eG*eG*eG) | 98% | 77% | 88% | 88% | 88% | 94% |  |
| ISIS 474589: 5-10-5 MOE gapmer antisense oligonucleotide targeting murine TTC39C (antisense eT*e[5mC]*e[5mC]*eG*eA*dA*dA*dT*d[5mC]*dG*d[5mC]*dT*d[5mC]*dA*dG*e[5mC]*e[5mC]*eT*eG*e[5mC]) | 100% | 95% | 96% | 97% | 99% | 100% |  |
| ISIS 474592: 5-10-5 MOE gapmer antisense oligonucleotide targeting murine TTC39C (antisense eG*eA*eA*eG*e[5mC]*dA*dT*dA*dT*dT*dG*dA*dT*dG*d[5mC]*e[5mC]*eA*eG*e[5mC]*e[5mC]) | 93% | 24% | 45% | 71% | 84% | 92% | 1200 nM |
| ISIS 474595: 5-10-5 MOE gapmer antisense oligonucleotide targeting murine TTC39C (antisense eG*eT*e[5mC]*eA*eT*d[5mC]*dG*d[5mC]*dA*d[5mC]*dG*d[5mC]*d[5mC]*dA*dA*e[5mC]*eT*eG*e[5mC]*eA) | 97% | 80% | 87% | 95% | 98% | 98% |  |
| ISIS 474596: 5-10-5 MOE gapmer antisense oligonucleotide targeting murine TTC39C (antisense e[5mC]*eG*eA*eT*eT*dA*d[5mC]*dA*d[5mC]*d[5mC]*dA*dG*d[5mC]*d[5mC]*dT*e[5mC]*eT*eT*e[5mC]*eA) | 93% | 47% | 65% | 62% | 90% | 96% | 600 nM |
| ISIS 474598: 5-10-5 MOE gapmer antisense oligonucleotide targeting murine TTC39C (antisense e[5mC]*e[5mC]*e[5mC]*eA*e[5mC]*d[5mC]*dT*dT*dT*dT*dA*dT*dG*dT*dA*eG*eG*e[5mC]*e[5mC]*eG) | 94% | 40% | 37% | 60% | 83% | 94% | 1100 nM |
| ISIS 474599: 5-10-5 MOE gapmer antisense oligonucleotide targeting murine TTC39C (antisense e[5mC]*eG*eT*eT*eG*dA*dT*dG*dT*d[5mC]*d[5mC]*dA*d[5mC]*dA*dT*eA*eG*e[5mC]*eA*e[5mC]) | 92% | 36% | 59% | 60% | 84% | 92% | 900 nM |
| ISIS 474600: 5-10-5 MOE gapmer antisense oligonucleotide targeting murine TTC39C (antisense e[5mC]*e[5mC]*eA*eA*eG*dG*dG*d[5mC]*dT*d[5mC]*dT*dT*d[5mC]*d[5mC]*dG*eT*e[5mC]*eA*eG*e[5mC]) | 90% | 47% | 57% | 66% | 86% | 89% | 600 nM |
| ISIS 474601: 5-10-5 MOE gapmer antisense oligonucleotide targeting murine TTC39C (antisense eG*eG*e[5mC]*e[5mC]*eA*dT*dA*dT*d[5mC]*d[5mC]*dA*dA*dA*dG*d[5mC]*eT*e[5mC]*eA*e[5mC]*eA) | 91% | 36% | 49% | 65% | 87% | 92% | 1000 nM |
